Laboratory results from publication PMC5053523, “In Vitro Antibacterial Activity of Rhodanine Derivatives against Pathogenic Clinical Isolates” (PLoS ONE, 2016).
≈ marks a conversion by molar mass, not a printed value. Where two headings read alike, the source gives them in different places.

Columns and labels:
Candida albicans = assay: MIC against Candida albicans; format: cell-based; settings: table prints none, read-out: MIC
P. aeruginosa = assay: Broth microdilution MIC, P. aeruginosa; format: cell-based; settings: Pseudomonas aeruginosa
MRSA USA300 = assay: MIC against MRSA USA300 with and without 4% human serum albumin; format: cell-based, Staphylococcus aureus; settings: Staphylococcus aureus, read-out: MIC against MRSA USA300
Procedure, shortened: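 MIC measured in tryptic soy broth spiked with 4% HSA and without it, using CLSI broth microdilution on MRSA USA300. Value reported is the lowest concentration preventing bacterial growth.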

Klebsiella pneumoniae = assay: MIC with/without PMBN, Klebsiella pneumoniae; format: cell-based
Method: (§1) The MIC of the rhodanines and control antibiotics, in the presence of a sub-inhibitory concentration of colistin or polymixin B nonapeptide (PMBN), against Gram-negative bacteria was evaluated as described before. The antibacterial activity of the rhodanines was further investigated against E. coli SM1411Δ acrAB, a strain that is deficient in the multidrug-resistant AcrAB efflux pump, as described before.

[1] = test system: methicillin-resistant Staphylococcus aureus (MRSA); assay: Broth microdilution MIC/MBC, MRSA; format: cell-based
Pseudomonas aeruginosa = assay: MIC with/without PMBN, Pseudomonas aeruginosa; format: cell-based
Method: as §1

Acinetobacter baumannii = assay: MIC with/without sub-MIC colistin, Acinetobacter baumannii; format: cell-based
Method: as §1

[2] = test system: vancomycin resistant enterococci (VRE) E. faecium; assay: Broth microdilution MIC/MBC, VRE E. faecium; format: cell-based; settings: for MIC: read-out: MIC
Bacillus Strains = assay: Broth microdilution MIC50/MIC90 and MIC range, Bacillus strains panel; format: cell-based, Bacillus spp.; settings: 10 Bacillus strains
Excerpt: The broth microdilution technique was used, followed by subculturing on agar plates that were rhodanine—free. […] The MICs reported represent the lowest concentration of each compound necessary to inhibit bacterial growth and the MBCs represent the lowest concentration required to reduce the initial bacterial inoculum by ≥ 99.9%.

[3] = test system: vancomycin resistant enterococci (VRE) E. faecalis; assay: Broth microdilution MIC/MBC, VRE E. faecalis; format: cell-based; settings: for MIC: read-out: MIC
Clostridium difficile = assay: MIC against Clostridium difficile, anaerobic broth dilution; format: cell-based; settings: Clostridioides difficile
Method: Clinical isolates of C. difficile were cultured on anaerobic blood agar and incubated anaerobically using container gas pack system at 37° C for 48 hours. The colonies were then suspended in pre-reduced phosphate buffered saline (PBS) and adjusted to 0.5 McFarland standard then diluted 1:300 in pre-reduced Supplemented Brain Heart Infusion broth. The bacterial suspension was then transferred to each well of 96-well plates, the drugs were added to the first row of wells in the required concentrations and serially diluted along the plates. The plates were incubated again anaerobically using container gas pack system at 37° C for 48 hours. The (MIC) recorded was the lowest concentration of the drug showing no visible growth of the bacteria.

K. pneumoniae = assay: Broth microdilution MIC, K. pneumoniae; format: cell-based
[4] = E. faecium HM 968 Strain ERV102
[5] = E. faecium NR31914 Strain E0120
[6] = E. faecium Patient #1–1 NR-31903
[7] = E. faecalis NR31972 Strain SF 28073

O=C(O)[C@H](Cc1ccccc1)N1C(=O)/C(=C/c2cccc(-c3ccc(Cl)c(Cl)c3)c2)SC1=S [Rh 2]
MIC (Candida albicans; ATCC10231, C. albicans ATCC 10231, unit from abstract): > 64 µM
MIC (Candida albicans; C. albicans NR 29434, unit from abstract): > 64 µM
MIC (Candida albicans; C. albicans NR 29435, unit from abstract): > 64 µM
MIC (Candida albicans; C. albicans NR29437, unit from abstract): > 64 µM
MIC (Candida albicans; C. albicans NR29438, unit from abstract): > 64 µM
MIC (Candida albicans; C. albicans NR 29446, unit from abstract): > 64 µM
MIC (Candida albicans; C. albicans NR 29448, unit from abstract): > 64 µM
MIC (Candida albicans; C. albicans NR 29449, unit from abstract): > 64 µM
MIC (Candida albicans; C. albicans NR 29453, unit from abstract): > 64 µM
MIC (Candida albicans; C. albicans NR 294436, unit from abstract): > 64 µM
MIC (P. aeruginosa; ATCC9721): > 128 µM
MIC (P. aeruginosa; ATCC15442): > 128 µM
MIC (MRSA USA300; 24 h, Media TSB + 4% HSA): > 64 µM
MIC (MRSA USA300; Media TSB): 4 µM (≈ 2.06 µg/mL)
MIC (Klebsiella pneumoniae; Klebsiella pneumoniae ATCC BAA 1706, PMBN (+) 4 μg/mL): >64 µM
MIC (Klebsiella pneumoniae; Klebsiella pneumoniae ATCC BAA 2146, PMBN (+) 4 μg/mL): >64 µM
MIC (Klebsiella pneumoniae; Klebsiella pneumoniae, BAA1706): > 128 µM
MIC (Klebsiella pneumoniae; Klebsiella pneumoniae, BAA2146): > 128 µM
MIC50 ([1]; 11 MRSA strains): 4 µM (≈ 2.06 µg/mL)
MIC90 ([1]; 11 MRSA strains): 4 µM (≈ 2.06 µg/mL)
MBC ([1]; MRSA NRS 1): 4 µM (≈ 2.06 µg/mL)
MIC ([1]; MRSA NRS 1): 4 µM (≈ 2.06 µg/mL)
MBC ([1]; MRSA NRS 19): 4 µM (≈ 2.06 µg/mL)
MIC ([1]; MRSA NRS 19): 4 µM (≈ 2.06 µg/mL)
MBC ([1]; MRSA NRS 37): 4 µM (≈ 2.06 µg/mL)
MIC ([1]; MRSA NRS 37): 4 µM (≈ 2.06 µg/mL)
MBC ([1]; MRSA NRS 107): 16 µM (≈ 8.23 µg/mL)
MIC ([1]; MRSA NRS 107): 8 µM (≈ 4.12 µg/mL)
MBC ([1]; MRSA NRS 119): 4 µM (≈ 2.06 µg/mL)
MIC ([1]; MRSA NRS 119): 4 µM (≈ 2.06 µg/mL)
MBC ([1]; MRSA NRS 382): 4 µM (≈ 2.06 µg/mL)
MIC ([1]; MRSA NRS 382): 4 µM (≈ 2.06 µg/mL)
MBC ([1]; MRSA NRS 383): 4 µM (≈ 2.06 µg/mL)
MIC ([1]; MRSA NRS 383): 4 µM (≈ 2.06 µg/mL)
MBC ([1]; MRSA NRS 384): 16 µM (≈ 8.23 µg/mL)
MIC ([1]; MRSA NRS 384): 4 µM (≈ 2.06 µg/mL)
MBC ([1]; MRSA NRS 385): 4 µM (≈ 2.06 µg/mL)
MIC ([1]; MRSA NRS 385): 4 µM (≈ 2.06 µg/mL)
MBC ([1]; MRSA NRS 386): 8 µM (≈ 4.12 µg/mL)
MIC ([1]; MRSA NRS 386): 4 µM (≈ 2.06 µg/mL)
MBC ([1]; MRSA NRS 387): 4 µM (≈ 2.06 µg/mL)
MIC ([1]; MRSA NRS 387): 4 µM (≈ 2.06 µg/mL)
MIC (Pseudomonas aeruginosa; Pseudomonas aeruginosa ATCC 9721, PMBN (+) 4 μg/mL, read-out: MIC): >64 µM
MIC (Pseudomonas aeruginosa; Pseudomonas aeruginosa, ATCC9721): > 128 µM
MIC (Acinetobacter baumannii; Acinetobacter baumannii ATCC BAA747, colistin (+) […], read-out: MIC): >64 µM
MIC (Acinetobacter baumannii; Acinetobacter baumannii ATCC BAA19606, colistin (+) […], read-out: MIC): >64 µM
MIC (Acinetobacter baumannii; Acinetobacter baumannii, ATCCBAA747): > 128 µM
MIC (Acinetobacter baumannii; Acinetobacter baumannii, ATCCBAA19606): > 128 µM
MBC ([2]; E. faecium E417 HM-965): 64 µM (≈ 32.9 µg/mL)
MIC ([2]; E. faecium E417 HM-965): 4 µM (≈ 2.06 µg/mL)
MBC ([2]; E. faecium E1071 NR-28978): 64 µM (≈ 32.9 µg/mL)
MIC ([2]; E. faecium E1071 NR-28978): 8 µM (≈ 4.12 µg/mL)
MBC [2, 4]: 64 µM (≈ 32.9 µg/mL)
MIC [2, 4]: 4 µM (≈ 2.06 µg/mL)
MBC [2, 5]: 32 µM (≈ 16.5 µg/mL)
MIC [2, 5]: 4 µM (≈ 2.06 µg/mL)
MBC [2, 6]: 64 µM (≈ 32.9 µg/mL)
MIC [2, 6]: 4 µM (≈ 2.06 µg/mL)
MIC50 (Bacillus Strains): 2 µM (≈ 1.03 µg/mL)
MIC90 (Bacillus Strains): 4 µM (≈ 2.06 µg/mL)
MBC ([3]; E. faecalis ERV103 HM-934): 4 µM (≈ 2.06 µg/mL)
MIC ([3]; E. faecalis ERV103 HM-934): 4 µM (≈ 2.06 µg/mL)
MBC [3, 7]: 32 µM (≈ 16.5 µg/mL)
MIC [3, 7]: 4 µM (≈ 2.06 µg/mL)
MBC ([3]; E. faecalis R712 HM-335): 4 µM (≈ 2.06 µg/mL)
MIC ([3]; E. faecalis R712 HM-335): 4 µM (≈ 2.06 µg/mL)
MBC ([3]; E. faecalis S613 HM-334): 4 µM (≈ 2.06 µg/mL)
MIC ([3]; E. faecalis S613 HM-334): 4 µM (≈ 2.06 µg/mL)
MBC ([3]; E. faecalis TX0104 HM-201): 4 µM (≈ 2.06 µg/mL)
MIC ([3]; E. faecalis TX0104 HM-201): 4 µM (≈ 2.06 µg/mL)
MIC (Clostridium difficile; C. difficile HM-88): 4 µM (≈ 2.06 µg/mL)
MIC (Clostridium difficile; C. difficile HM-745): 2 µM (≈ 1.03 µg/mL)
MIC (Clostridium difficile; C. difficile HM-746): 2 µM (≈ 1.03 µg/mL)
MIC (Clostridium difficile; C. difficile Isolate-1 NR-13427): 2 µM (≈ 1.03 µg/mL)
MIC (Clostridium difficile; C. difficile Toxigenic Strain P8 NR-32888): 8 µM (≈ 4.12 µg/mL)
MIC (K. pneumoniae; K. pneumoniae NR-15417): >128 µM
MIC (K. pneumoniae; Klebsiella pneumoniae): > 128 µM
